In US10206907B2, “Compounds useful for the treatment of degenerative and inflammatory diseases” (GALAPAGOS NV, priority 2008, dated 2019):

Target: Recombinant human JAK1 catalytic domain (Homo sapiens (Human), UniProt P23458)
Test: JAK1 inhibition assay
Type: biochemical
Settings: semi-quantitative score
Protocol: Plates were washed 6 times with 300 μL per well of a 75 mM phosphoric acid solution and the bottom of the plates was sealed. 40 μL/well of Microscint-20 was added, the top of the plates was sealed and readout was performed using the Topcount (Perkin Elmer). Kinase activity was calculated by subtracting counts per minute (cpm) obtained in the presence of a positive control inhibitor (10 μM staurosporine) from cpm obtained in the presence of vehicle. The ability of a test compound to inhibit this activity was determined as: Percentage inhibition=((cpm determined for sample with test compound present−cpm determined for sample with positive control inhibitor) divided by (cpm determined in the presence of vehicle−cpm determined for sample with positive control inhibitor))*100%.
Dose dilution series were prepared for the compounds enabling the testing of dose-response effects in the JAK1 assay and the calculation of the IC50 for each compound.

Recombinant human JAK1 catalytic domain, sequence (P23458 850-1154): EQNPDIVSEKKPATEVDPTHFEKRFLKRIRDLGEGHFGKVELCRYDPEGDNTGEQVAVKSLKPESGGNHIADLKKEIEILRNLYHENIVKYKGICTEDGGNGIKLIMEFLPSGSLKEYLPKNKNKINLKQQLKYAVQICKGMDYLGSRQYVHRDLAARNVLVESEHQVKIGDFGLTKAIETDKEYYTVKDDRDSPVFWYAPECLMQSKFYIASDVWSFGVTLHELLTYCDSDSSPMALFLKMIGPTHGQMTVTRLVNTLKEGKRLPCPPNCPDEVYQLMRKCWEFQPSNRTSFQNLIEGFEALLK

O=C(Nc1nc2cccc(-c3ccc(-c4ccccc4)nc3)n2n1)C1CC1 [Compound 47, N-(5-(6-phenylpyridin-3-yl)-[1,2,4]triazolo[1,5-a]pyridin-2-yl)cyclopropanecarboxamide]
IC50: 101 to 500 nM

CCCN(CC1CCCO1)C(=O)c1ccc(-c2cccc3nc(NC(=O)C4CC4)nn23)cc1 (centres unmarked) [Compound 136, 4-(2-(cyclopropanecarboxamido)-[1,2,4]triazolo[1,5-a]pyridin-5-yl)-N-propyl-N-((tetrahydrofuran-2-yl)methyl)benzamide]
IC50: 101 to 500 nM

Cc1nccn1CCC1CCN(C(=N)c2ccc(-c3cccc4nc(NC(=O)C5CC5)nn34)cc2)CC1 [Compound 154, N-(5-(4-(imino(4-(2-(2-methyl-1H-imidazol-1-yl)ethyl)piperidin-1-yl)methyl)phenyl)-[1,2,4]triazolo[1,5-a]pyridin-2-yI)cyclopropanecarboxamide]
IC50: 101 to 500 nM

O=C(Nc1nc2cccc(-c3ccc(OCC(=O)N4CCCCC4)cc3)n2n1)C1CC1 [Compound 117, N-(5-(4-(2-oxo-2-(piperidin-1-yl)ethoxy)phenyl)-[1,2,4]triazolo[1,5-a]pyridin-2-yl)cyclopropanecarboxamide]
IC50: > 1000 nM

O=C(Nc1nc2cccc(-c3ccc(C(=O)N4CCC(c5nc6ccccc6[nH]5)CC4)cc3)n2n1)C1CC1 [Compound 128, N-(5-(4-(4-(1H-benzo[d]imidazol-2-yl)piperidine-1-carbonyl)phenyl)-[1,2,4]triazolo[1,5-a]pyridin-2-yl)cyclopropanecarboxamide]
IC50: 501 to 1000 nM

O=C(NCCN1CCCC1)c1ccc(-c2cccc3nc(NC(=O)C4CC4)nn23)cc1 [Compound 80, 4-(2-(cyclopropanecarboxamido)-[1,2,4]lriazoIo[1,5-a]pyridin-5-yl)-N-(2-(pyrrolidin-l-yl)ethyl)benzamide]
IC50: 101 to 500 nM

O=C(Nc1nc2cccc(-c3ccc(N4CCOCC4)nc3)n2n1)C1CC1 [Compound 6, N-(5-(6-morpholinopyridin-3-yl)-[1,2,4]triazolo[1,5-a]pyridin-2-yl)cyclopropanecarboxamide]
IC50: > 1000 nM

O=C(Nc1nc2cccc(-c3ccc(-c4cn[nH]c4)cc3)n2n1)C1CC1 [Compound 67, N-(5-(4-(1H-pyrazol-4-yl)phenyl)-[1,2,4]triazolo[1,5-a]pyridin-2-yl)cyclopropanecarboxamide]
IC50: 101 to 500 nM

O=C(Nc1nc2cccc(-c3ccc(NS(=O)(=O)Cc4ccccc4)nc3)n2n1)C1CC1 [Compound 184, N-(5-(6-(phenylmethylsulfonamido)pyridin-3-yl)-[1,2,4]triazolo[1,5-a]pyridin-2-yl)cyclopropanecarboxamide]
IC50: > 1000 nM

CN(Cc1ccc(-c2ccccn2)cc1)Cc1ccc(-c2cccc3nc(NC(=O)C4CC4)nn23)cc1 [Compound 159, N-(5-(4-((methyl(4-(pyridin-2-yl)benzyl)amino)methyl)phenyl)-[1,2,4]triazolo[1,5-a]pyridin-2-yl)cyclopropanecarboxamide]
IC50: 101 to 500 nM

O=C(Nc1ccc(-c2cccc3nc(NC(=O)C4CC4)nn23)cc1)C1CCC1 [Compound 70, N-(4-(2-(cyclopropanecarboxamido)-[1,2,4]triazolo[1,5-a]pyridin-5-yl)phenyl)cyclobutanecarbox-amide]
IC50: 101 to 500 nM

O=C(Nc1nc2cccc(-c3ccc(OCc4cccc(OC(F)(F)F)c4)cc3)n2n1)C1CC1 [Compound 38, N-(5-(4-(3-(trifluoromethoxy)benzyloxy)phenyl)-[1,2,4]triazolo[1,5-a]pyridin-2-yl)cyclopropanecarboxamide]
IC50: 101 to 500 nM

Cc1nn(C)cc1S(=O)(=O)Nc1ccc(-c2cccc3nc(NC(=O)C4CC4)nn23)cc1 [Compound 65, N-(5-(4-(1,3-dimethyl-1H-pyrazole-4-sulfonamido)phenyl)-[1,2,4]triazolo[1,5-a]pyridin-2-yl)cyclopropanecarboxamide]
IC50: 101 to 500 nM

O=C(Nc1nc2cccc(-c3ccc(NS(=O)(=O)c4ccccc4)nc3)n2n1)C1CC1 [Compound 180, N-(5-(6-(phenylsulfonamido)pyridin-3-yl)-[1,2,4]triazolo[1,5-a]pyridin-2-yl)cyclopropanecarboxamide]
IC50: 101 to 500 nM

O=C(Nc1nc2cccc(-c3ccc(NS(=O)(=O)C4CC4)nc3)n2n1)C1CC1 [Compound 191, N-(5-(6-(cyclopropanesulfonamido)pyridin-3-yl)-[1,2,4]triazolo[1,5-a]pyridin-2-yl)cyclopropanecarboxamide]
IC50: > 1000 nM

O=C(Nc1ccc(-c2cccc3nc(NC(=O)C4CC4)nn23)cc1)c1ccccn1 [Compound 55, N-(4-(2-(cyclopropanecarboxamido)-[1,2,4]triazolo[1,5-a]pyridin-5-yl)phenyl)picolinamide]
IC50: 101 to 500 nM

O=C(Nc1nc2cccc(-c3ccc(S(=O)(=O)Cc4ccccn4)cc3)n2n1)C1CC1 [Compound 194, N-(5-(4-(pyridin-2-ylmethylsulfonyl)phenyl)-[1,2,4]triazolo[1,5-a]pyridin-2-yl)cyclopropanecarboxamide]
IC50: 101 to 500 nM

CC(=O)N1CCN(Cc2ccc(-c3cccc4nc(NC(=O)C5CC5)nn34)cc2)CC1 [Compound 141, N-(5-(4-((4-acetoylpiperazin-1-yl)methyl)phenyl)-[1,2,4]triazolo[1,5-a]pyridin-2-yl)cyclopropanecarboxamide]
IC50: 101 to 500 nM

CN1CCN(c2ccc(COc3ccc(-c4cccc5nc(NC(=O)C6CC6)nn45)cc3)cn2)CC1 [Compound 167, N-(5-(4-((6-(4-methylpiperazin-1-yl)pyridin-3-yl)methoxy)phenyl)-[1,2,4]triazolo[1,5-a]pyridin-2-yl)cyclopropanecarboxamide]
IC50: 101 to 500 nM

O=C(Nc1nc2cccc(-c3ccc(C(=O)N4CCC(c5ccc(Cl)cc5)CC4)cc3)n2n1)C1CC1 [Compound 86]
IC50: < 100 nM

CN1CCN(Cc2ccc(-c3cccc4nc(NC(=O)C5CC5)nn34)cc2)CC1 [Compound 130, N-(5-(4-((4-methylpiperazin-1-yl)methyl)phenyl)-[1,2,4]triazolo[1,5-a]pyridin-2-yl)cyclopropanecarboxamide]
IC50: > 1000 nM

O=C(Nc1ccc(-c2cccc3nc(NC(=O)C4CC4)nn23)cc1)c1cnccn1 [Compound 35, N-(4-(2-(cyclopropanecarboxamido)-[1,2,4]triazolo[1,5-a]pyridin-5-yl)phenyl)pyrazine-2-carboxamide]
IC50: 101 to 500 nM

O=C(Nc1nc2cccc(-c3cccc(CN4CCOCC4)c3)n2n1)C1CC1 [Compound 2, N-(5-(3-(morpholinomethyl)phenyl)-[1,2,4]triazolo[1,5-a]pyridin-2-yl)cyclopropanecarboxamide]
IC50: 101 to 500 nM

Cc1nc(COc2ccc(-c3cccc4nc(NC(=O)C5CC5)nn34)cc2)c(C)o1 [Compound 63, N-(5-(4-((2,5-dimethyloxazol-4-yl)methoxy)phenyl)-[1,2,4]triazolo[1,5-a]pyridin-2-yl)cyclopropanecarboxamide]
IC50: 101 to 500 nM

O=C(Nc1nc2cccc(-c3ccc(NCc4cccnc4)nc3)n2n1)C1CC1 [Compound 170, N-(5-(6-(pyridin-3-ylmethylamino)pyridin-3-yl)-[1,2,4]triazolo[1,5-a]pyridin-2-yl)cyclopropanecarboxamide]
IC50: 501 to 1000 nM

O=C(Nc1nc2cccc(-c3ccc(C(=O)N4CCC(n5nnc6ccccc65)CC4)cc3)n2n1)C1CC1 [Compound 152, N-(5-(4-(4-(1H-benzo[d][1,2,3]triazol-1-yl)piperidine-1-carbonyl)phenyl)-[1,2,4]triazolo[1,5-a]pyridin-2-yl)cyclopropanecarboxamide]
IC50: 101 to 500 nM

O=C(Nc1nc2cccc(-c3cn(Cc4ccccn4)nn3)n2n1)C1CC1 [Compound 193]
IC50: > 1000 nM

O=C(Nc1nc2cccc(-c3ccnc(N4CCC(CCN5CCOCC5)CC4)c3)n2n1)C1CC1 [Compound 95, N-(5-(2-(4-(2-morpholinoethyl)piperidin-1-yl)pyridin-4-yl)-[1,2,4]triazolo[1,5-a]pyridin-2-yl)cyclopropanecarboxamide]
IC50: > 1000 nM

O=C(Nc1nc2cccc(-c3cnc(N4CCCC4)nc3)n2n1)C1CC1 [Compound 4, N-(5-(2-(pyrrolidin-1-yl)pyrimidin-5-yl)-[1,2,4]triazolo[1,5-a]pyridin-2-yl)cyclopropanecarboxamide]
IC50: 501 to 1000 nM

COc1ccccc1C1CCN(C(=O)c2ccc(-c3cccc4nc(NC(=O)C5CC5)nn34)cc2)CC1 [Compound 131, N-(5-(4-(4-(2-methoxyphenyl)piperidine-1-carbonyl)phenyl)-[1,2,4]triazolo[1,5-a]pyridin-2-yl)cyclopropanecarboxamide]
IC50: 101 to 500 nM

CN1CCN(c2ccc(-c3cccc4nc(NC(=O)C5CC5)nn34)cn2)CC1 [Compound 5, N-(5-(6-(4-methylpiperazin-1-yl)pyridin-3-yl)-[1,2,4]triazolo[1,5-a]pyridin-2-yl)cyclopropanecarboxamide]
IC50: > 1000 nM

O=C(Nc1nc2cccc(-c3ccc(CN4CCCCC4)cc3)n2n1)C1CC1 [Compound 139, N-(5-(4-(pipcridin-1-ylmethyl)phenyl)-[1,2,4]triazolo[1,5-a]pyridin-2-yl)cyclopropanecarboxamide]
IC50: 501 to 1000 nM

O=C(Nc1nc2cccc(-c3ccc(NCCc4cccnc4)nc3)n2n1)C1CC1 [Compound 172, N-(5-(6-(2-(pyridin-3-yl)ethylamino)pyridin-3-yl)-[1,2,4]triazolo[1,5-a]pyridin-2-yl)cyclopropanecarboxamide]
IC50: 501 to 1000 nM

O=C(Nc1nc2cccc(-c3cn(Cc4ccccc4)nn3)n2n1)C1CC1 [Compound 187, N-(5-(1-benzyl-1H-1,2,3-triazol-4-yl)-[1,2,4]triazolo[1,5-a]pyridin-2-yl)cyclopropanecarboxamide]
IC50: 501 to 1000 nM

O=C(Nc1ccc(-c2cccc3nc(NC(=O)C4CC4)nn23)cc1)c1ccccc1F [Compound 34, N-(4-(2-(cyclopropanecarboxamido)-[1,2,4]triazolo[1,5-a]pyridin-5-yl)phenyl)-2-fluorobenzamide]
IC50: 101 to 500 nM
